Measurements taken from ChEMBL document CHEMBL1201862, “PubChem BioAssay data set” (2004).
Active and inactive are the calls of the source.

Assays:
[1] = Intein inhibitors as potential Tuberculosis drugs, a cytotoxicity screen. [Related pubchem assays (depositor defined):AID2221, AID2223, AID434968, AID435010, AID449749, AID449750, AID489010]; assay type: functional
[2] = target: Heat shock protein HSP 90-alpha (Homo sapiens, UniProt P07900); assay type: functional, organism-based
[3] = non-specific 3'UTR reporter inhibition in Clone20-Shn3RL – cell-based, Renilla luciferase, cherry-picked, counter-screen for Shn3 inhibitor project, dose response (AID 624133); assay type: functional
Protein RecA = target: T1, Protein RecA (Mycobacterium tuberculosis, UniProt P9WHJ3); assay: Fluorescence Cell-Free Homogeneous Dose Retest to Identify Inhibitors of RecA-Intein Splicing Activity. [Related pubchem assays (depositor defined):AID2097, AID2223, AID489010, AID492950]; assay type: functional
T1 sequence (P9WHJ3 whole entry): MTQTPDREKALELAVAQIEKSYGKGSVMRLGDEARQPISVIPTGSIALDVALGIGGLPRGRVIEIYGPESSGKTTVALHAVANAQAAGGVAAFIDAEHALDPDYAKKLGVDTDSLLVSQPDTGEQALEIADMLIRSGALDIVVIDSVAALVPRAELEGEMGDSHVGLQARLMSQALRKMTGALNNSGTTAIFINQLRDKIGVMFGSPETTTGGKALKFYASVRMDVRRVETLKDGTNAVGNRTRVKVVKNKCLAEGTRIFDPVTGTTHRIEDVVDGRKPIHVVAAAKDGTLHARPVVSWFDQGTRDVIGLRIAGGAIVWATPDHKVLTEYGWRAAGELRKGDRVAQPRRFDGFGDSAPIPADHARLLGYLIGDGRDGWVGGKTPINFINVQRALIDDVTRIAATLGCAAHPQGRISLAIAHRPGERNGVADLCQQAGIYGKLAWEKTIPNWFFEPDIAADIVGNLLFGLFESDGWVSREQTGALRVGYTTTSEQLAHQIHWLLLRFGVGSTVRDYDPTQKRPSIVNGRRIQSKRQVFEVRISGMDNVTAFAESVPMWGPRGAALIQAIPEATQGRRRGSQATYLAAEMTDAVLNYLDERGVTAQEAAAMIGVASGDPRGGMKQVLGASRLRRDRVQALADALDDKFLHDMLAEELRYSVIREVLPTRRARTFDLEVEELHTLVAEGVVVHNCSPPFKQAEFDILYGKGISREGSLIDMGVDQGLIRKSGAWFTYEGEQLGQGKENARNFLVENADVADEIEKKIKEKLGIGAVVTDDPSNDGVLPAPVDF

[4] = reduction of Shn3 3'UTR-driven luciferase in osteoblasts – cell-based, Clone20 osteoblasts, firefly luciferase, cherry-picked, dose response (AID 624132); assay type: functional;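 note: firefly luciferase luminescence from reporter carrying the Shn3 3'UTR in osteoblasts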
[5] = target: T2, Replicative DNA helicase DnaB (Mycobacterium tuberculosis, UniProt P9WMR3); assay: DnaB intein splicing inhibitors, dose response, biochemical, cell-free fluorescence (AID 449749); assay type: functional
T2 sequence (P9WMR3 whole entry): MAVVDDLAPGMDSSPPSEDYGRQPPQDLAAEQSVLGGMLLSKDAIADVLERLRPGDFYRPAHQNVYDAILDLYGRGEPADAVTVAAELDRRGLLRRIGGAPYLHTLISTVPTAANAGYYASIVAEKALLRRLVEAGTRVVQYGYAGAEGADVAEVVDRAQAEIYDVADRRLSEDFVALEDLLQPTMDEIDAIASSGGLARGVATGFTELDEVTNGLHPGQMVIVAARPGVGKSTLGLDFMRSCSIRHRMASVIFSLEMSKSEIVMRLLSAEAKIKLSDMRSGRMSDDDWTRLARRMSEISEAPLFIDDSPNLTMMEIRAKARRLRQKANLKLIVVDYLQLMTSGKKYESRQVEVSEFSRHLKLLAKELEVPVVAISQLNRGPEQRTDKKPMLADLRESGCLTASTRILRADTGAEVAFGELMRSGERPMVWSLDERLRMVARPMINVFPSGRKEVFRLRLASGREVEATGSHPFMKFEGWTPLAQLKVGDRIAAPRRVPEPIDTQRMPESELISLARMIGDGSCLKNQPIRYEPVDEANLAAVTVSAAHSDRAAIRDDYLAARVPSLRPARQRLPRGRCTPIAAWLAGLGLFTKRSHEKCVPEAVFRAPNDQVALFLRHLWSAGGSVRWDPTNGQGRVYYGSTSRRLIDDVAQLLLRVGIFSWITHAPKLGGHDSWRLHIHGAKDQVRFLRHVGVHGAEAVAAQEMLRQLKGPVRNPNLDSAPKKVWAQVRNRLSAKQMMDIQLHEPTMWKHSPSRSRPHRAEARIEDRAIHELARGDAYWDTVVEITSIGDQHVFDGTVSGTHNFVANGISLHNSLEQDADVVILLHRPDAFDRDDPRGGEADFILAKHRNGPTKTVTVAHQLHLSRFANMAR

[6] = NIH-3T3 fibroblast cytotoxicity, dose response, cytotoxicity control, cell-based, fluorescence, Alamar Blue, secondary assay (AID 2327); assay type: functional;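 note: NIH-3T3 mouse fibroblasts cultured with fluconazole at 8 µg/mL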
Cytochrome P450 2C9 = Cytochrome P450 2C9 (Homo sapiens, UniProt P11712)
[7] = loss of viability in HepG2 cells – cell-based, CellTiter-Glo, cherry-picked, cytotoxicity control for Shn3 inhibitor project, dose response (AID 624134); assay type: functional
[8] = fluconazole-exposed Candida albicans growth modulators – fluorescence, retest, confirmation (AID 2467); assay type: functional, cell-based
INS1 = assay: INS-1E survival protection against cytokine death – cell-based, luminescence, retest, dose response (AID 449756); assay type: functional; settings: Rattus norvegicus;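 note: cell death triggered by IL-1 beta plus TNF-alpha plus IFN-gamma mixture; protective hits raise ATP signal compared with cytokine alone wells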
[9] = Trypanosoma cruzi growth suppression in host cells – NIH3T3 host cells, beta-gal luminescence, confirmation (AID 2044); assay type: functional, cell-based;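 note: intracellular parasites grown in NIH/3T3 mouse fibroblasts as host cells; luminescent beta-galactosidase reporter signal from transgenic T. cruzi replicating inside host cells; inhibitors lower the luminescence signal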
[10] = NIH3T3 cell viability loss – ATP luminescence, mouse fibroblasts, counter-screen, dose response (AID 2010); assay type: functional, cell-based;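 note: cells exposed to compound for about 90 hours before reading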
Genome polyprotein = Genome polyprotein (dengue virus type 2, UniProt P29990); assay: flavivirus cap methylation enzyme inhibition – biochemical, confirmation dose response, primary screen (AID 588689); assay type: functional
[11] = target: G-protein coupled receptor 55 (Homo sapiens, UniProt Q9Y2T6); assay: inhibition of LPI-stimulated GPR55 beta-arrestin translocation – imaging, U2OS, beta-arrestin-GFP, LPI agonist, primary screen (AID 2013); assay type: functional;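 note: antagonist potency measured as reduced agonist-driven arrestin aggregation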
[12] = target: Induced myeloid leukemia cell differentiation protein Mcl-1 (Homo sapiens, UniProt Q07820); assay type: functional
Fatty acid synthase [13] = target: T3, Fatty acid synthase (Homo sapiens, UniProt P49327); assay: inhibition of human FAS-TE enzyme activity – biochemical, kinetic fluorescence intensity, dose response (AID 624326); assay type: functional;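 note: rate of fluorescence rise from hydrolysis of a fluorogenic O-methyl fluorescein ester substrate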
Leucine aminopeptidase = target: T4, Leucine aminopeptidase (Plasmodium falciparum 3D7, UniProt Q8IL11); assay: P. falciparum M17LAP inhibitors, primary screen, biochemical, fluorogenic H-Leu-NHMec substrate, 1536-well (AID 1619); assay type: functional
T4 sequence (Q8IL11 whole entry): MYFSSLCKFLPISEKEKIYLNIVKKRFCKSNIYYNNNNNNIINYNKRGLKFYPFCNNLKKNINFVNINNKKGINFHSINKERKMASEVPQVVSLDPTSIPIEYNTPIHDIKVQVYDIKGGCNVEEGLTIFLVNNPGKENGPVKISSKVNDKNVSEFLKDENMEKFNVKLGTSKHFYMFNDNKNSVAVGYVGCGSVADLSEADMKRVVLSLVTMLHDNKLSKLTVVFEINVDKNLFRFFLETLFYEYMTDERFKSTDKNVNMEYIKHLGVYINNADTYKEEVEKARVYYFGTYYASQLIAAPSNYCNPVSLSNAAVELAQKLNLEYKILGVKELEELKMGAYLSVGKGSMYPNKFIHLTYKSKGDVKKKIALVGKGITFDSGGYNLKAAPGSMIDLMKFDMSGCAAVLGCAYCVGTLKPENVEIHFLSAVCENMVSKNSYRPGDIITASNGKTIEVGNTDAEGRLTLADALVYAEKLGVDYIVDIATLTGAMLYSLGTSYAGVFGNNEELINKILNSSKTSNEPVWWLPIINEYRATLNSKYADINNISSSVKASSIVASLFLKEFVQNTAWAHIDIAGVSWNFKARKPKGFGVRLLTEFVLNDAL

Fatty acid synthase [14] = target: T3, Fatty acid synthase; assay: inhibition of human FAS-TE enzyme activity – biochemical, endpoint fluorescence intensity, uHTS hits, dose response (AID 624327); assay type: functional;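 note: fluorescence from hydrolysis of an O-methyl fluorescein acyl ester substrate by the enzyme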
Caspase-6 = target: T5, Caspase-6 (Homo sapiens, UniProt P55212); assay: inhibition of CASP6 peptide cleavage – biochemical, VEID-R110 fluorescence, cherry-pick, dose response (AID 720632)
T5 sequence (P55212 whole entry): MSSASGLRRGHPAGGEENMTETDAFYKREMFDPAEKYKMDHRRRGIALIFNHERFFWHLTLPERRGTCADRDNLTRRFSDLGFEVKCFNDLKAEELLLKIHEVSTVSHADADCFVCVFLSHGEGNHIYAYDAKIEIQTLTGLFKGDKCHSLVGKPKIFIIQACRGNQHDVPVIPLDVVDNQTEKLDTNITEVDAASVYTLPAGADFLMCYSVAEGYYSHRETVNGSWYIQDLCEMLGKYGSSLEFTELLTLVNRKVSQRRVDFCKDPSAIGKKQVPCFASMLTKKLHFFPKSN
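Throughout, for CC50: cells exposed to compound for 72 hours before luminescence readout.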

Chain of G-protein coupled receptor 55 (Q9Y2T6 whole entry): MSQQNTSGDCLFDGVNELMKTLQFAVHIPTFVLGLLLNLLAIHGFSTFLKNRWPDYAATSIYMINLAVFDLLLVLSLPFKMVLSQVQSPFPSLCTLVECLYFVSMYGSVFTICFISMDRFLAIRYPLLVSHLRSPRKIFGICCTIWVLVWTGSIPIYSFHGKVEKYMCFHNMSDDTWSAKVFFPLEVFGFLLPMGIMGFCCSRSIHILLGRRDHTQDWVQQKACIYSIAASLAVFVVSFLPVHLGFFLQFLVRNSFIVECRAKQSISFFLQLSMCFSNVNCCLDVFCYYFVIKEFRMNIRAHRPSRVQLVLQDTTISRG
T3 sequence (P49327 whole entry): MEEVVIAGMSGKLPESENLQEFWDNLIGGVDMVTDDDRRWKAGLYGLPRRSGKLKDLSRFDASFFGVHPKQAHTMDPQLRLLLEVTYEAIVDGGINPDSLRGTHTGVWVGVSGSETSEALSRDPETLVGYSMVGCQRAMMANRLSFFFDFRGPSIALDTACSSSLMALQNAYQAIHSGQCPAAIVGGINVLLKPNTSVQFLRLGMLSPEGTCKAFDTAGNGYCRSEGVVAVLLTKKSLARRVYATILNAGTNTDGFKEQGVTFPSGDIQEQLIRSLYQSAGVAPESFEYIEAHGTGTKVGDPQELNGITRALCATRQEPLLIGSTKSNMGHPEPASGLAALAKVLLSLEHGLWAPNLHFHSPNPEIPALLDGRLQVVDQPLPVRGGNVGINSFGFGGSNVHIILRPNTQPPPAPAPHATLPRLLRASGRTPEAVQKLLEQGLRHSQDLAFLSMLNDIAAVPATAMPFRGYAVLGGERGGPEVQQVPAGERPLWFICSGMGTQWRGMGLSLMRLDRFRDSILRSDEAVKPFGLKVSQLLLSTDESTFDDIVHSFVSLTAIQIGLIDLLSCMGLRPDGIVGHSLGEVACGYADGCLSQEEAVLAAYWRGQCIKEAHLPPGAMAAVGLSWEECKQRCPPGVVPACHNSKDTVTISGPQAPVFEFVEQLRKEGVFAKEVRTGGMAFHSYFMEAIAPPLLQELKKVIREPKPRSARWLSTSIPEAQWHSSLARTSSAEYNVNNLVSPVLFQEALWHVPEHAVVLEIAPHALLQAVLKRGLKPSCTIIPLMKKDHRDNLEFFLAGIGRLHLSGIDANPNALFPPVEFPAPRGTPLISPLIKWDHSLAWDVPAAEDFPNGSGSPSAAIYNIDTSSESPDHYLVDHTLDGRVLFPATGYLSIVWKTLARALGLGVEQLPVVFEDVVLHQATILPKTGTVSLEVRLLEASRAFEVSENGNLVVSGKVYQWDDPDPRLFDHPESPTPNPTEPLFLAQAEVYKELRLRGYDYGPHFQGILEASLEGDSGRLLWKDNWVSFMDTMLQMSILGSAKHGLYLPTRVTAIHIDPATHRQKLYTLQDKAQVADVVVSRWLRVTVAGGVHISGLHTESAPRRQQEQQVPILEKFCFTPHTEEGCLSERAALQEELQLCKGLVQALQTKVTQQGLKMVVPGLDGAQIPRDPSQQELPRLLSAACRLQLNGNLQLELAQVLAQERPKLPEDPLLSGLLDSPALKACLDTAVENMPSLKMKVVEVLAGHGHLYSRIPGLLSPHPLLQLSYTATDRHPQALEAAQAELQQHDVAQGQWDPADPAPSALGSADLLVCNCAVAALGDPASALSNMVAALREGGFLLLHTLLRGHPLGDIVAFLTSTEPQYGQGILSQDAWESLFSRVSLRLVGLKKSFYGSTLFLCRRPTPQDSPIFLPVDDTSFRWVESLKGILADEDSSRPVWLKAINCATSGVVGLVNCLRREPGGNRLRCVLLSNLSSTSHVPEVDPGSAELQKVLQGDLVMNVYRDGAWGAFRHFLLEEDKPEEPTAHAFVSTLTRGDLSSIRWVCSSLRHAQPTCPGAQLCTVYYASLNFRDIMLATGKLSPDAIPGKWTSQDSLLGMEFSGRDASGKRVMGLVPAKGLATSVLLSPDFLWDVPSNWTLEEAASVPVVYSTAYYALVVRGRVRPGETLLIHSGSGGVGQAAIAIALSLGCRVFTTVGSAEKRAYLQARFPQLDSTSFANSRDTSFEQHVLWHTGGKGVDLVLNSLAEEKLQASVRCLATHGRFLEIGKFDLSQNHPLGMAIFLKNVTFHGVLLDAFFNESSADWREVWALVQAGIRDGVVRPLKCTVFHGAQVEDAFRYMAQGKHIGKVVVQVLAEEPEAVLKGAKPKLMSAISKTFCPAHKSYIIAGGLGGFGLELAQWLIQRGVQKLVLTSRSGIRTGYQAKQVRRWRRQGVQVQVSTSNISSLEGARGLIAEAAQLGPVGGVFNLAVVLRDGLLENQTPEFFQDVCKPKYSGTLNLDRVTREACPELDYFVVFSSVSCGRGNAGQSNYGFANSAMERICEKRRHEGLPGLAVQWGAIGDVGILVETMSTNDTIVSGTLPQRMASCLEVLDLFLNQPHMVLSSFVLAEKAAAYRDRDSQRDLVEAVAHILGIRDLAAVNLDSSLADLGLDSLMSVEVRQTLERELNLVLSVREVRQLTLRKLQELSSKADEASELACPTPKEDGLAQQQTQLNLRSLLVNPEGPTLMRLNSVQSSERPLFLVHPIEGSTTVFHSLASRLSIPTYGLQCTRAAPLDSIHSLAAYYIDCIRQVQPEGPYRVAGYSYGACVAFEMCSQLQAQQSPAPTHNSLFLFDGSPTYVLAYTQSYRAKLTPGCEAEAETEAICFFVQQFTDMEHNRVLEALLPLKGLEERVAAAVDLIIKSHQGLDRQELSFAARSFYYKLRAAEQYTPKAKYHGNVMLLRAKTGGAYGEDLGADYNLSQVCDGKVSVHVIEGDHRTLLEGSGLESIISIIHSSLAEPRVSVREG
Chain of Induced myeloid leukemia cell differentiation protein Mcl-1 (Q07820 whole entry): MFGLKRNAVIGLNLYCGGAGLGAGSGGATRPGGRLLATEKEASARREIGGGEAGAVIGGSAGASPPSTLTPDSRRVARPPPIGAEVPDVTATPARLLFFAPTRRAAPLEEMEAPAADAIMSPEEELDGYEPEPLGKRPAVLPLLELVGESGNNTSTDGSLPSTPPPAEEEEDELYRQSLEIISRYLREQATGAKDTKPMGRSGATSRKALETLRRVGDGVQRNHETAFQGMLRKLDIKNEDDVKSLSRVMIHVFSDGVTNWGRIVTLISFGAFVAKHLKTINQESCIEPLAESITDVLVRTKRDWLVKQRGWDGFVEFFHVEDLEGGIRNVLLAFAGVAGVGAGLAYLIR
Chain of Cytochrome P450 2C9 (P11712 whole entry): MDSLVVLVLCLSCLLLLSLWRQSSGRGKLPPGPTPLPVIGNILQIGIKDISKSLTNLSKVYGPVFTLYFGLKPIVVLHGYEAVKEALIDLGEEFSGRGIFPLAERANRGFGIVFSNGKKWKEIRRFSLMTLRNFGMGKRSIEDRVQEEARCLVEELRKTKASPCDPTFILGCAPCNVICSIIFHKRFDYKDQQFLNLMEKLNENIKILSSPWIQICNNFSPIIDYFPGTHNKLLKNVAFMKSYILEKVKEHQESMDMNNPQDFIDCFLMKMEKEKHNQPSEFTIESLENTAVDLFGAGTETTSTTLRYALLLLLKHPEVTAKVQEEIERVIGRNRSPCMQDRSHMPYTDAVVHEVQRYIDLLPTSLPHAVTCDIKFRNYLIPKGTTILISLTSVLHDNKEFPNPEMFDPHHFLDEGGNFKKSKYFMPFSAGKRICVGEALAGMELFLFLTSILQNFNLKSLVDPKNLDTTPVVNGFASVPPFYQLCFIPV
Chain of Genome polyprotein (P29990 2492-3391 limits assumed): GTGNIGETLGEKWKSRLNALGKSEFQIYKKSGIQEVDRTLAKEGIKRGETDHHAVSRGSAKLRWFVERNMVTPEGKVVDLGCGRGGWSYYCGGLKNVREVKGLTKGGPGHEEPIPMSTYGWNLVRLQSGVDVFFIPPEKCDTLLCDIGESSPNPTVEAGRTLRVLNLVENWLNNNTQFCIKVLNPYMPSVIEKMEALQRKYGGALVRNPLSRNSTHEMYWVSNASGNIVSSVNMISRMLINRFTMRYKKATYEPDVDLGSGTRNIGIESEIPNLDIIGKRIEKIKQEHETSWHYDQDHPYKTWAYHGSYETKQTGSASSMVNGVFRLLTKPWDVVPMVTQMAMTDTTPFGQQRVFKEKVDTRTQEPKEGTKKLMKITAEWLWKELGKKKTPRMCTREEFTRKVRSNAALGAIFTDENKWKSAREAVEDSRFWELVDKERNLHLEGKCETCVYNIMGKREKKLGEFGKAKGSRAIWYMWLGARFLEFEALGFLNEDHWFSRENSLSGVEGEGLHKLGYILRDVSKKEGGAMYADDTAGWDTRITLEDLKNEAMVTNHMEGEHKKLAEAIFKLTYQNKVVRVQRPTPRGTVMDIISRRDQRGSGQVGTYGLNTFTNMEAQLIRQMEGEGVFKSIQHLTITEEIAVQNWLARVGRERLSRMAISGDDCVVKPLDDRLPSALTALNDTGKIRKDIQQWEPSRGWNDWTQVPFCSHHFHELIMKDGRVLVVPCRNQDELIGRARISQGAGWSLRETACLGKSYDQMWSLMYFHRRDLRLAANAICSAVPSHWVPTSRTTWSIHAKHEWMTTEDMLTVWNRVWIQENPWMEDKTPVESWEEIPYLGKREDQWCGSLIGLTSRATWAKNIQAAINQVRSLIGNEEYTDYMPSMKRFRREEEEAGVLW

In the case of `O=C(OCn1ncc(Cl)c(Cl)c1=O)c1cccc(C(F)(F)F)c1`, the CC50 [1] is reported as 8.16 µM (active), the AC50 [2] is reported as 4.11 µM (active) and the AC50 [3] is reported as 7.88 µM (active). For the same compound, the EC50 (Protein RecA) was 190 nM (active), the AC50 [4] was 3.74 µM (active) and the AC50 [5] was 1.44 µM (active). The EC50 [6] was 5.31 µM (inconclusive), the AC50 (Cytochrome P450 2C9) was “inconclusive” and the AC50 [7] was 49.7 µM (active). The EC50 [8] was 781 nM (active).
With `Cc1cccc(Cn2nnc3c2C(=O)c2ccccc2C3=O)c1` the CC50 [1] was 11.7 µM (active), the AC50 (INS1) was 5.21 µM (active) and the EC50 [9] was 2.58 µM (active). For the same compound, the EC50 [10] was > 30 µM (not active), the EC50 (Protein RecA) was 446 nM (active) and the AC50 [5] was 4.2 µM (active).
With `COc1ccc(S(=O)(=O)CC(=O)c2cc3cc(Br)ccc3oc2=O)cc1` the IC50 (Genome polyprotein) was > 100 µM (active) and the IC50 [11] was 2.11 µM (active).
With `C=CCOc1c(OC)cc(/C=N/Nc2cccc(C(=O)O)c2)c(Br)c1Br` the IC50 [12] was 5.84 µM (not active), the IC50 (Fatty acid synthase [13]) was 3.06 µM (active) and the IC50 [11] was 2.92 µM (active). The IC50 (Leucine aminopeptidase) was < 1 µM (active), the IC50 (Fatty acid synthase [14]) was 3.82 µM (active) and the AC50 (Caspase-6) was 19.2 µM (active).
